Reference: patent US8513225B2, “Composition and method for topical treatment of skin lesions” (Winlind Skincare, LLC, priority 2008, dated 2013)

Tests used:
[1] = penetration of PG into human nails; settings: 30 minutes after application of a thin layer to nail surface, adults
[2] = repeated application to normal skin of adults without acne; settings: applied repeatedly to face and arm, 2 adults, several days
wart = settings: conventional treatment; cited from earlier work

CC(O)CO (stereo not drawn) [100% PG, propylene glycol]
absorption into nails [1]: virtually no PG can be found on the nail surface
adverse reactions on normal skin [2]: No adverse reactions were observed

O=C(O)c1ccccc1O [high strength salicylic acid, salicylic acid]
time for wart removal process (wart): 6 to 12 weeks
